Calls of active or inactive are those of the source. No cut-off for these calls is given here.

Data set [1] relates to Plasma. In words: Antioxidant activity in human plasma assessed as inhibition of H2O2/[…]-induced lipid peroxidation at 10 uM incubated for 30 mins by TBARS assay. In kind it is functional, cell-free.
Data set [2] concerns Plasma. In words: Antioxidant activity in human plasma assessed as inhibition of H2O2-induced lipid peroxidation at 10 uM incubated for 30 mins by TBARS assay. In kind it is functional, cell-free.
Data set [3] concerns Plasma. As to the kind of experiment: Antioxidant activity in human plasma protein assessed as reduction of H2O2/Fe2+-induced plasma protein carbonylation at 10 uM incubated for 30 mins. In kind it is functional. Details: scale not given: the % may be the effect or the level left.
The subject of data set [4] is Plasma. In words: Antioxidant activity in human plasma protein assessed as reduction of H2O2-induced oxidation of thiol group at 10 uM incubated for 30 mins by Ellman reagent based spectrophotometry. In kind it is functional, cell-free.
Data set [5] deals with Plasma. As to the kind of experiment: Antioxidant activity in human plasma protein assessed as reduction of H2O2-induced plasma protein carbonylation at 10 uM incubated for 30 mins. In kind it is functional, cell-free.
The test system of data set [6] is Plasma. As to the kind of experiment: Effect on auto-carbonylation of human plasma protein at 0.1 to 100 uM. Particulars: dose 0.1-100 µM. In kind it is ADME, cell-free.
Data set [7] relates to Plasma. In words: Antioxidant activity in human plasma protein assessed as reduction of H2O2/Fe2+-induced oxidation of thiol group at 10 uM incubated for 30 mins by Ellman reagent based spectrophotometry. In kind it is functional, cell-free. On the technique in general: Ellman's reagent forms a yellow product with free thiols.
Data set [8] has as its system Plasma. As to the kind of experiment: Effect on autoxidation of thiol group in human plasma protein at 0.1 to 100 uM by Ellman reagent based spectrophotometry. In kind it is ADME, cell-free. Particulars: dose 0.1-100 µM.

As to `COc1c2cc(c(OC)c1O)Oc1ccc(cc1)[C@@H](O)C[C@H](O)CC/C=C/2`, the inhibition – broadly, the share of the control response that was lost under treatment – in the data set on Plasma [1] was 4%; in the data set on Plasma [2], 2.7%.

Regarding `COc1c2cc(c(OC)c1O)Oc1ccc(cc1)CC[C@@H](O)/C=C/C=C\2`, the Activity with Plasma [3] (0.5 h) was 65%; in the data set with Plasma [6] it was “Non-Toxic”; in the data set on Plasma [8] it was “Non-Toxic”. Besides, the result in the data set on Plasma [4], in the data set with Plasma [5] and with Plasma [7] was Active.

`COc1cc(/C=C/C(=O)CC(=O)/C=C/c2ccc(O)c(OC)c2)ccc1O`: the inhibition was 23.2% in the data set on Plasma [1] and 20.6% with Plasma [2].

As for `O=C1CCc2ccc(O)c(c2)-c2cc(ccc2O)C[C@H](O)[C@@H](O)[C@@H]1O`, the result in the data set on Plasma [3], in the data set on Plasma [4], with Plasma [5] and in the data set with Plasma [7] was Active. In addition, the Activity result in the data set on Plasma [6] and in the data set with Plasma [8] was “Non-Toxic” in each case.

On to `COc1c2cc(c(OC)c1O)Oc1ccc(cc1)CCC(=O)CC/C=C\2`, for which the outcome with Plasma [4] and with Plasma [7] was Active. Also, the Activity entry with Plasma [6] and in the data set with Plasma [8] was “Non-Toxic” in each case.

Regarding `COc1c(O)cc2cc1Oc1ccc(cc1)CC[C@@H](O)/C=C/C=C\2`, the result in the data set with Plasma [3], in the data set with Plasma [4], in the data set with Plasma [5] and in the data set with Plasma [7] was Active. Also, the Activity entry in the data set with Plasma [6] and with Plasma [8] was “Non-Toxic” each time.

`Oc1ccc2cc1-c1cc(ccc1O)C[C@H](O)[C@H](O)C(O)[C@@H](O)[C@H](O)C2` (some centres undefined): the inhibition was found to be 10.4% in the data set with Plasma [1] and 33.6% in the data set on Plasma [2].

In the case of `O=C1CCc2ccc(O)c(c2)-c2cc(ccc2O)C[C@H](O[C@@H]2O[C@H](CO)[C@@H](O)[C@H](O)[C@H]2O)C[C@@H]1O`, the inhibition with Plasma [1] came out at 4.8%; in the data set on Plasma [2] it was 3.9%.

For `O=C1[C@@H](O)Cc2ccc(O)c(c2)-c2cc(ccc2O)C[C@@H](O)[C@H](O)[C@H]1O`, the inhibition with Plasma [1] came out at 23.9%; in the data set on Plasma [2], 3.8%.

For the molecule `O=C1C[C@@H](O)Cc2ccc(O)c(c2)-c2cc(ccc2O)C[C@H](O)[C@H]1O`, the inhibition with Plasma [1] stood at 4.2%; in the data set with Plasma [2], 6.2%.

Take `O=C1CCc2ccc(O)c(c2)-c2cc(ccc2O)C[C@H](O)C[C@H]1O`: the inhibition in the data set on Plasma [1] came to 34.1%; in the data set with Plasma [2], 44.4%. Further, the result with Plasma [3], in the data set with Plasma [4], with Plasma [5] and with Plasma [7] was Active. Also, the Activity result in the data set with Plasma [6] and in the data set on Plasma [8] was “Non-Toxic” in each case.

Turning to `O=C1CCc2ccc(O)c(c2)-c2cc(ccc2O)C[C@@H](O)[C@H](O)C1`, the inhibition in the data set with Plasma [1] came to 11.2%; in the data set on Plasma [2] it was 3.9%.

In the case of `O=C1/C=C/CCc2ccc(O)c(c2)-c2cc(ccc2O)CC1`, the result with Plasma [4] and with Plasma [7] was Active. For the same molecule, the Activity result in the data set on Plasma [6] and in the data set with Plasma [8] was “Non-Toxic” each time.

Turning to `COc1c2cc(c(OC)c1O)Oc1ccc(cc1)[C@@H](O)C[C@H](O)/C=C/C=C/2`, the values for the inhibition with Plasma [1] and in the data set on Plasma [2] were 25.5% and 24.2%, respectively. The Activity in the data set with Plasma [3] (0.5 h) is reported as 65%; with Plasma [6], “Non-Toxic”; in the data set with Plasma [8], “Non-Toxic”. In addition, the outcome with Plasma [4], in the data set on Plasma [5] and in the data set with Plasma [7] was Active.

As to `COc1c2cc(c(OC)c1O)Oc1ccc(cc1)CCCC[C@@H](O)/C=C\2`, the result in the data set with Plasma [3], with Plasma [4], in the data set on Plasma [5] and in the data set with Plasma [7] was Active. Besides, the Activity result in the data set with Plasma [6] and with Plasma [8] was “Non-Toxic” throughout.

In the case of `Oc1ccc2cc1-c1cc(ccc1O)C[C@H](O)[C@@H](O)[C@@H](O)C[C@@H](O)C2`, the figures for the inhibition with Plasma [1] and with Plasma [2] were 14.4% and 33.3%, respectively.

These data come from ChEMBL document CHEMBL4808164, “Giffonins, Antioxidant Diarylheptanoids from Corylus avellana, and Their Ability to Prevent Oxidative Changes in Human Plasma Proteins” (J Nat Prod, 2021).
